{
  "source": "ChEMBL document CHEMBL1129655",
  "about": "“A comparative molecular field analysis study of N-benzylpiperidines as acetylcholinesterase inhibitors” (J Med Chem, 1996)",
  "biological_target": "T1, Acetylcholinesterase (Mus musculus, UniProt P21836)",
  "T1 sequence (P21836 whole entry)": "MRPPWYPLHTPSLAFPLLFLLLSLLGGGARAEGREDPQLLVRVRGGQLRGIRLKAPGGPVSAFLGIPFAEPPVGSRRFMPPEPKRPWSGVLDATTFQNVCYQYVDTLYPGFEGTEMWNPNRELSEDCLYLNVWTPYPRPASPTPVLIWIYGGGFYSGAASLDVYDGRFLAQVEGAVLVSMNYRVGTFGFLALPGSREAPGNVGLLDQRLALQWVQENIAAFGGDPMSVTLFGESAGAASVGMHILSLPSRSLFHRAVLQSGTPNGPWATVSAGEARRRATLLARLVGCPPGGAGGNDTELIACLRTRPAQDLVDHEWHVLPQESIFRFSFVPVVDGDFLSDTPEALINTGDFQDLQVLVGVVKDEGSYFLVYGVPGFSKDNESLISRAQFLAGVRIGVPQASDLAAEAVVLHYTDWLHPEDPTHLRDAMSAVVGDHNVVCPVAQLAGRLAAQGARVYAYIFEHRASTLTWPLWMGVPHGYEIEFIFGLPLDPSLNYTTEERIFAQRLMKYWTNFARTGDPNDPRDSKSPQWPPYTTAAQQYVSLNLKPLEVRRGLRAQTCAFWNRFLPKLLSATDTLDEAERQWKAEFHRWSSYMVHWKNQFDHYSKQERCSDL",
  "note": "pIC50: −log10 of the molar value.",
  "description": "Inhibition against Acetylcholinesterase (AChE)",
  "data": [
    {"smiles": "O=C(NCCC1CCN(CCc2ccccc2)CC1)c1ccccc1", "values": [
      {"measurement": "pIC50", "value": 4.89}
    ]}
  ]
}
